# Patent US5942511A, “Allylthiopyridazine derivatives and process for preparing the same” (Kwon; Soon Kyoung, priority 1998, dated 1999)
# Columns and labels:
# [1] = test system: serum LDH (lactate dehydrogenase); test: Effect of inhibiting hepatic disorder induced by acetaminophen (APAP): serum LDH; format: in vivo, male ICR mice; conditions: APAP 0.5 g/kg oral, compound 50 mg/kg per day oral, 3 days
# Excerpt: (§1) In addition, the liver protective effects of the compound of the present invention can also be confirmed by acetaminophen model [see, Wang et al., Toxicology and applied Pharmacology, 136, 146-154, 1996]. Acetaminophen is rapidly metabolized by CYP2E1 to cause hepatic toxicity, which results in structural and functional change in liver cellular membrane, causing necrosis in hepatic lobule, an increase in blood ALT and LDH (lactate dehydrogenase) levels.
# (§2) In the present invention, the inhibiting effect of the compound of formula (I) on hepatic disorder, induced by carbon tetrachloride and acetaminophene, was determined after oral administration of the novel compound according to the present invention to mouse as the experimental animal for 3 days. The degree of liver damage in respective experimental animal was determined by measuring ALT and LDH levels in blood [see, Biol. Pharm. Bull., 20, 4, 381-385, 1997; Toxicology and Applied Pharmacology, 95, 1-11, 1988], and further by removing the liver, staining (×100) the liver with hematoxylin and eosin and then observing with microscope to examine the degree of hepatocyte necrosis.
# (§3) Effect of inhibiting hepatic disorder induced by acetaminophen (APAP)
# (§4) The liver protective effect of the compound according to the present invention was examined according to the known method [see, Wang et al., Toxicology and applied Pharmacology, 136, 146-154, 1996] as specifically described below.
# (§5) The compound according to the present invention was suspended in corn oil and the resulting suspension was administered in an amount of 1.0 ml/kg. Each group was composed of 3 to 10 male ICR mice (5-6 weeks) and the test compound was orally administered for 3 days in the dose of 50 mg/kg per day. After 2 hours from the last administration of the test compound, acetaminophen was orally administered in an amount of 0.5 g/kg. In this experiment, silymarin was used as the comparative compound. After 22 hours from the administration of acetaminphen, blood was taken from the individual test animal and ALT and LDH values in serum were determined. The results as obtained are described in the following Tables 4 and 5 (in which ALT and LDH values are represented by mean±SE). In addition, liver was removed from the test animals and then observed according to the same manner as Experiment 3 to evaluate the degree of hepatocyte necrosis.
# [2] = test system: serum ALT (alanine aminotransferase); test: Effect of inhibiting hepatic disorder induced by acetaminophen (APAP): serum ALT; format: in vivo, male ICR mice; conditions: APAP 0.5 g/kg oral, compound 50 mg/kg per day oral, 3 days
# Excerpt: as §1, §2, §3, §4, §5
# [3] = test system: ICR male mouse; test: Acute toxicity test, single oral administration; format: in vivo; conditions: 14 days
# Experimental: (§6) Moreover, as a result of an acute toxicity test using mouse to evaluate the general toxicity of the compound according to the present invention, when the compound is single administered via oral route, the LD50 value of the respective compound is 3.5 g/kg or more. Therefore, the compound of the present invention is determined as being very safe.
# (§7) The acute toxicity test was carried out to quantitatively and qualitatively examine the toxicity which occurs within a short period of time after a single administration of the test compound to the experimental animal.
# (§8) In this experiment, the acute toxicity test was conducted using 5-6 weeks ICR male mouse obtained from Korea Experimental Animal Center. From 6 p.m., the day before administration of the test compound, to 9 a.m. the day on which the test compound is administered, mouse was fasted. The test compound was ground and suspended in corn oil and then administered in the dose of 1000 to 6000 mg/kg to the experimental animal. For each dose, 6 animals were used. The test compound was prepared and used on that day, and was single administered via oral route by means of a needle. After the compound of Example 4, as typical example of the compound according to the present invention was administered, the survived and died animals were observed during 14 days.
# [4] = Acute toxicity test, single oral administration; format: in vivo; conditions: in vivo, mouse, Litchfield-Wilcoxon method, 95% confidence interval 3.26-4.78 g/kg (Example 4)
# Experimental: as §6, §7, §8
# [5] = test system: hepatocyte necrosis; test: Effect of inhibiting hepatic disorder induced by carbon tetrachloride: hepatocyte necrosis; format: in vivo, male ICR mice; conditions: CCl4 model, 50 mg/kg per day oral, 3 days
# Experimental: as §2
# The liver protective effect of the compound according to the present invention was examined according to the known method [see, Philippe letteron et al., Biochemical Pharmacology, 39, 12, 2027-2034, 1990] as specifically described below.
# The compound according to the present invention was suspended in corn oil and the resulting suspension was administered in an amount of 1.0 ml/kg. Each group was composed of 3 to 10 male ICR mice (5-6 weeks) and the test compound was orally administered for 3 days in the dose of 50 mg/kg per day. After the test compound was administered, carbon tetrachloride was intraperitoneally injected in an amount of 100 μl/kg. In this experiment, silymarin was used as the comparative compound. After 24 hours from administration of carbon tetrachloride, blood was taken from the test animal by cardiac perforation and ALT value in serum was determined. The result obtained is described in the following Table 2 (in which ALT value is represented by mean±SE). The ALT unit in serum was determined by centrifuging blood to separate serum as the supernatant, and then the separated serum were subjected to Reitman-Frankel method by means of a commercially available kit (BC101-O,P, Youngdong Pharm.). That is, DL-alanine and α-ketoglutarate were used as the substrate solution to which 2,4-dinitrophenylhydrazine was added to produce hydrazone. Then, sodium hydroxide was added to hydrazone to colorize and then the absorbance was measured at 505 nm.
# In addition, liver was removed from the test animals, stained (×100) with hematoxylin and eosin and then observed by microscope. The degree of hepatocyte necrosis was evaluated according to the following 5 grades: 0 no lesion, 1 mild lesion, 2 moderate lesion, 3 severe lesion and 4 diffused lesion.
compound,measurement,setting,value
"C=CCSc1ccc(OC)nn1 [Example 4, 3-methoxy-6-allylthiopyridazine]",Inhibiting rate (serum LDH),[1],99.8%
same,Serum LDH value,[1]; mean±SE,703 ± 83 KA unit/l
same,Inhibiting rate (serum ALT),[2],97%
same,Serum ALT value,[2]; mean±SE,186 ± 118 KA unit/l
same,D/T (number of died animals / number of test animals),[3]; 1000 mg/kg,0/6
same,D/T (number of died animals / number of test animals),[3]; 2000 mg/kg,0/6
same,D/T (number of died animals / number of test animals),[3]; 3000 mg/kg,1/6
same,D/T (number of died animals / number of test animals),[3]; 4000 mg/kg,3/6
same,D/T (number of died animals / number of test animals),[3]; 5000 mg/kg,4/6
same,D/T (number of died animals / number of test animals),[3]; 6000 mg/kg,6/6
same,LD50 at 336 h,[4],3950 mg/kg
same,Degree of necrosis 0: number of animals,[5]; grade 0 no lesion,0
same,Degree of necrosis 1: number of animals,[5]; grade 1 mild lesion,1
same,Degree of necrosis 2: number of animals,[5]; grade 2 moderate lesion,5
same,Degree of necrosis 3: number of animals,[5]; grade 3 severe lesion,2
same,Degree of necrosis 4: number of animals,[5]; grade 4 diffused lesion,2
